Measured values reported in US20030152986A1, “Method for sorting antifungal molecules acting on the glucanosyltransferase activity” (Institut Pasteur, priority 1996, published 2003).
Residue numbers refer to the chain shown, from its start.

What was measured:
[1] = molecular target: T1, 49 kDa β-(1-3)-glucanosyltransferase (BGT2) (Aspergillus fumigatus, UniProt B0XT72); assay: Transferase assay with reduced (^3H-marked) laminarioligosaccharides, products separated by HPAEC; type: biochemical; conditions: for activity of the transferase towards the substance as substrate/donor: incubation with 49 kDa transferase, HPAEC analysis of products
T1 construct: from tissue; host or cells: Aspergillus fumigatus CBS 144-89 mycelium, cell wall autolysate; four ion-exchange steps and one gel filtration
Experimental: The enzyme fractions were assayed for transferase activity by incubation in 50 mM Na citrate, pH 5.0 at 37° C. (10 μl volume per assay) with a laminarioligosaccharide reduced with borohydride (8 mM final) of at least size G10. Samples (3 μl) were taken at different times, 50 mM NaOH cooled in ice (47 μl) was added to terminate the reaction, and the mixture was frozen until analyzed by high-performance anion-exchange chromatography (HPAEC). Since the peak intensities detected by Pulsed Electrochemical Detector (PED) varied from day to day, the transferase activity was quantified by use of reduced laminarioligosaccharides marked with ^3H as substrates and measurement of the appearance of the marking in the products after separation by HPAEC chromatography, using the on-line Radiomatic 150TR scintillation rate analysis apparatus (Packard).
Except where otherwise mentioned, the assays for the enzyme characterization studies were performed as above with 0.25 μg of purified transferase.
The samples from the transferase tests were analyzed on a Dionex CarboPac PA1 analytical column (4×250 mm) (with a PA1 reference column) on a Dionex HPAEC-type system with pulsed electrochemical detection (PED-2 cell), fitted with a combination of pH-Ag/AgCl reference electrodes and using a potential of 0.4 V for the first 0.5 s of detection. The oligosaccharides were eluted under the following conditions: flow rate 1 ml/min, buffer A: 50 mM NaOH; buffer B: 500 mM sodium acetate in 50 mM NaOH; gradient 0 to 2 min, 98% A 2% B (isocratic), 2 to 15 min 75% A 25% B (linear), 15 to 45 min 60% A 40% B (linear).
In order to determine the relative reaction rate of the enzymes with laminarioligosaccharides of variable sizes, the 49 kDa enzyme (0.25 μg) was incubated with 8 mM of rG10 to rG15 marked with ^3H and the rate of formation of the marked products was measured. The rate with rG10 (328 nmol.min^−1) was approximately equal to 50% of that with the larger substrates and there was no significant difference between the reaction rates for rG11 to rG15 (648±46 nmol.min^−1.mg protein^−1).
The relative rate of the reaction with the acceptors was determined by using 2 mM of rG11 as donor and 32 mM of reduced acceptor marked with ^3H and measuring the formation of marked transferase product (FIG. 4). Under these conditions, the reaction with rG11 used as acceptor was negligible. The reaction rate increased with an increase in chain length, showing that the 49 kDa enzyme prefers the larger laminarioligosaccharide acceptors.
By using rG11 as substrate, it was impossible to calculate an apparent Km corresponding to the two steps of the reaction. In order to determine a Km for the donor site, we used an acceptor which was not a donor. We used [^3H]-rG7 (1×10^6 cpm) as acceptor at a high concentration (64 mM) with different concentrations of rG11 kept below 8 mM. Under these conditions, the reaction took place with rG11 as donor and rG7 was used rather than rG11 as acceptor, as determined by the absence of formation of the transferase product rG16. The initial reaction rate was determined by measuring the appearance of marked rG12.

49 kDa enzyme = molecular target: T2, 49 kDa enzyme (Aspergillus fumigatus, UniProt B0XT72); assay: Optimum pH and storage stability of the 49 kDa enzyme; type: biochemical
T2 construct: from tissue; host or cells: Aspergillus fumigatus CBS 144-89 mycelium, cell wall autolysate; four ion-exchange steps and one gel filtration
T2 sequence (B0XT72 whole entry, looked up): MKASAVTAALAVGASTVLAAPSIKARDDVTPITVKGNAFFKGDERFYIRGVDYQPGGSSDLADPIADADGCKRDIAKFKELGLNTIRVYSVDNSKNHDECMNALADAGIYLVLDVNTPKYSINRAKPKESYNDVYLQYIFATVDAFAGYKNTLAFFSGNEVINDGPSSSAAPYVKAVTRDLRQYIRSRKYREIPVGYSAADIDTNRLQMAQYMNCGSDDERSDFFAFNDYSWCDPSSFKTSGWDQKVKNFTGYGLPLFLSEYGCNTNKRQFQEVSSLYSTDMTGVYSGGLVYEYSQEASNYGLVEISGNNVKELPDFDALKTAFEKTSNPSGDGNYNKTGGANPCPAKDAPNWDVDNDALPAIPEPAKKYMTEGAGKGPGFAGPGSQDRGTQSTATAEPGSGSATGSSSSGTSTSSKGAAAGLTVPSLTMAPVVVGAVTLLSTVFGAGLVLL
Experimental: FIG. 6 illustrates the effect of pH on the transfer rate. The 49 kDa transferase was incubated with 8 μM of [^3H]-rG11 (1×10^6 cpm). The reaction rates were determined by measuring the quantity of marking formed in the form of the product rG16. The buffers used were: ●, sodium citrate/citric acid; ∘, imidazole/citric acid; x, sodium acetate/acetic acid; [formula], Tris/glycine; ▴, phosphate/NaOH; □, Tris/acetic acid; Δ, glycine/HCl.
The 49 kDa enzyme was tested at different pH values, the storage stability was verified and the activity of the N-glycosylated enzyme was tested. The enzyme was active over a wide range of acid pH, showing an activity of more than 50% of its maximum between pH 2.5 and 6.0.

Molecule: OC[C@H]1O[C@@H](O[C@H]2[C@H](O)[C@@H](O)[C@H](O[C@H]3[C@H](O)[C@@H](O)[C@H](O[C@H]4[C@H](O)[C@@H](O)[C@H](O[C@H]5[C@H](O)[C@@H](O)C(O)O[C@@H]5CO)O[C@@H]4CO)O[C@@H]3CO)O[C@@H]2CO)[C@H](O)[C@@H](O)[C@@H]1O (stereo partly shown) [ceflopentaose]
- activity of the transferase towards the substance as substrate/donor [1]: no activity

Molecule: chitohexaose
- activity of the transferase towards the substance as substrate/donor [1]: no activity

Molecule: gentiooligosaccharides
- activity of the transferase towards the substance as substrate/donor [1]: no activity

Molecule: maltoheptaose
- activity of the transferase towards the substance as substrate/donor [1]: no activity

Molecule: reduced laminarihexose [[^3H]-rG6]
- Transfer rate ([1]; 2 mM rG11 as donor, 32 mM ^3H-marked reduced acceptor, initial rate of formation of transfer product): 387 nmol.min^−1.mg protein^−1

B1: 49 kDa enzyme: β-(1-3)-glucanosyltransferase purified from cell wall autolysate of A. fumigatus, SEQ ID NO 2/3 (protein, listed as Aspergillus fumigatus)
chain 1: T2 sequence (B0XT72 whole entry, looked up) with A103T
chain 2: DDVTPITVKGNAFFKGDERFYIRGVDYQPGGSSDLADPIADADGCKRDIAKFKELGLNTIRVYSVDNSKNHDECMNTLADAGIYLVLDVNTPKYSINRAKPKESYNDVYLQYIFATVDAFAGYKNTLAFFSGNEVINDGPSSSAAPYVKAVTRDLRQYIRSRKYREIPVGYSAADIDTNRLQMAQYMNCGSDDERSDFFAFNDYSWCDPSSFKTSGWDQKVKNFTGYGLPLFLSEYGCNTNKRQFQEVSSLYSTDMTGVYSGGLVYEYSQEASNYGLVEISGNNVKELPDFDALKTAFEKTSNPSGDGNYNKTGGANPCPAKDAPNWDVDNDALPAIPEPAKKYMTEGAGKGPGFAGPGSQDRGTQSTATAEPGSGSATGSSSSGTSTSSKGAAAGLTVPSLTMAPVVVGAVTLLSTVFGAGLVLL
- storage stability (49 kDa enzyme; 4° C. in 10 mM citrate buffer pH 5.0 for several weeks, speed-vac dried and re-suspended, or −20° C.): without significant loss of activity
- pH optimum (49 kDa enzyme; citrate buffer): about 5.0
